One molecule from patent publication US20120124703A1, “NOVEL COPRINUS COMATUS AND TREMELLA MESENTERICA MUSHROOM STRAINS, PRODUCTS AND EXTRACTS THEREOF AND COMPOSITIONS COMPRISING THEM” (PALMED TEVA LTD, priority 2009, published 2012) can be followed below.

Experiment [1] can be described thus: Scavenging activity on DPPH radicals. The format is biochemical. The following applies: standard BHA 1 mg/ml. The method, then: Scavenging Activity on 1,1-diphenyl-2-picrylhydrazyl. The scavenging activity of extracts from C. comatus was measured on 1,1-diphenyl-2-picrylhydrazyl (DPPH) radicals. An aliquot of 0.5 ml of 0.1 mM DPPH radical (Sigma) in methanol was added to a test tube with 1 mL of mushroom ethanol or water extract of different concentrations (0.5 to 9 mg/mL). Methanol or water was used instead of the mushroom sample as a control. The reaction mixture was vortex-mixed at room temperature and the absorbance was determined immediately after mixing by measuring at 520 nm with a spectrophotometer. Inhibition of free radicals by DPPH was calculated as follows: I (%)=(Ablank−Asample/Ablank)×100, where I is inhibition (%), Ablank is the absorbance of the control reaction (containing all reagents except the test compound), and Asample is the absorbance of the test compound. The extract concentration providing 50% inhibition (EC50) was calculated from the graph of scavenging activity of radical percentage against extract concentration. Butylated hydroxyanisole (BHA) in concentration of 1 mg/ml methanol was used as the standard. Each value is expressed as mean±standard deviation (n=3).
Free-radical scavenging is one of the known mechanisms by which antioxidants inhibit lipid oxidation. […] The decrease in absorbance is taken as a measure of the extent of radical-scavenging.
On the technique in general: The DPPH test is a chemical assay of radical scavenging.

The nature of experiment [2]: Antioxidant activity, β-carotene bleaching method. Format: biochemical. The method, then: β-Carotene Bleaching Method. The antioxidant activity of C. comatus extracts was determined according to the β-carotene bleaching method. A reagent mixture containing 1 ml of (3-carotene (Sigma) solution (0.2 mg/ml in chloroform), 0.02 ml of linoleic acid (Sigma), and 0.2 ml of Tween 80 (Sigma) was evaporated to dryness under a nitrogen stream. Fifty milliliters of oxygenated distilled water and 0.2 ml of mushroom crude extracts (either ethanol or culture liquid) with different concentrations (2-8 mg/ml) were added. Pure methanol or water (0.2 ml) was used as the control, and the blank contained all the earlier chemicals except β-carotene. All these mixtures were then shaken to form a liposome solution and then incubated at 50° C. for 2 h. The absorbance of an aliquot (1 ml) of these liposome solutions at 470 nm was monitored by a spectrophotometer at time intervals of 20 min. Butylated hydroxyanisole (BHA) (Sigma) (2 mg/ml in methanol) was used as the standard. […] The bleaching rate (R) of 13-carotene was calculated according to
where: ln—natural log, a—absorbance at time 0, b—absorbance at time t, and t—incubation interval 20, 40, 60, 80, 100, or 120 min.
The antioxidant activity (AOA) was calculated, in terms of percent inhibition relative to the control, using Equation (2) […]

As to `COc1ccc(O)c(C(C)(C)C)c1` [BHA, Butylated hydroxyanisole], the “Scavenging ability (% of inhibition)” value in experiment [1] is 92.0%. Further, the “Antioxidant activity (%) of water extracts” value in experiment [2] (extract concentration 2.0 mg/mL, BHA 2 mg/mL in methanol) is reported as 98.2%. For the same molecule, the “Antioxidant activity (%) of ethanol extracts” value in experiment [2] (extract concentration 2.0 mg/ml, BHA 2 mg/ml in methanol) is recorded as 98.2%.
